Measured values as given in PMC12274840 (The Journal of Biological Chemistry, 2025).
Where two headings read alike, the source gives them in different places.

Experiments:
[1] = system: E. coli KA797 cells carrying pUK21 with BlaC WT (Tat); experiment: microbe, parasite or virus in culture; format: cell-based; conditions: in combination with 100 μg/ml carbenicillin
[2] = system: E. coli KA797 cells carrying pUK21 with CTX-M-14 WT (Tat); experiment: microbe, parasite or virus in culture; format: cell-based; conditions: in combination with 100 μg/ml carbenicillin
[3] = system: E. coli KA797 cells carrying pUK21 with NmcA (pelB/Sec); experiment: microbe, parasite or virus in culture; format: cell-based; conditions: in combination with 25 μg/ml carbenicillin
[4] = system: E. coli KA797 cells carrying pUK21 with TEM-1 WT (Sec); experiment: microbe, parasite or virus in culture; format: cell-based; conditions: in combination with 100 μg/ml carbenicillin
[5] = system: E. coli KA797 cells carrying BlaC position 105 library; format: cell-based, Escherichia coli; conditions: for Fi AVG (average fitness): average of replicates

`CC1(C)[C@H](C(=O)O)N2C(=O)C[C@H]2S1(=O)=O` [sulbactam] gave an MIC of inhibitor [1] of 4 µg/mL, an MIC of inhibitor [2] of 32 µg/mL and an MIC of inhibitor [3] of 32 µg/mL. The MIC of inhibitor [4] was 32 µg/mL, the “Fi AVG (average fitness)” value ([5]; AA 105 Ala (BlaC I105A), relative to WT Ile) was -0.022 and the “Fi AVG (average fitness)” value ([5]; AA 105 Arg (BlaC I105R), relative to WT Ile) was -0.000687. For the same compound, the “Fi AVG (average fitness)” value ([5]; AA 105 Asn (BlaC I105N), relative to WT Ile) was 0.167, the “Fi AVG (average fitness)” value ([5]; AA 105 Asp (BlaC I105D), relative to WT Ile) was -0.060 and the “Fi AVG (average fitness)” value ([5]; AA 105 Cys (BlaC I105C), relative to WT Ile) was -0.004. The “Fi AVG (average fitness)” value ([5]; AA 105 Gln (BlaC I105Q), relative to WT Ile) was 0.070, the “Fi AVG (average fitness)” value ([5]; AA 105 Glu (BlaC I105E), relative to WT Ile) was 0.009 and the “Fi AVG (average fitness)” value ([5]; AA 105 Gly (BlaC I105G), relative to WT Ile) was 0.023. The “Fi AVG (average fitness)” value ([5]; AA 105 His (BlaC I105H), relative to WT Ile) was 0.133, the “Fi AVG (average fitness)” value ([5]; AA 105 Ile (BlaC WT, reference)) was 0.000 and the “Fi AVG (average fitness)” value ([5]; AA 105 Leu (BlaC I105L), relative to WT Ile) was 0.101. The “Fi AVG (average fitness)” value ([5]; AA 105 Lys (BlaC I105K), relative to WT Ile) was 0.043, the “Fi AVG (average fitness)” value ([5]; AA 105 Met (BlaC I105M), relative to WT Ile) was -0.015 and the “Fi AVG (average fitness)” value ([5]; AA 105 Phe (BlaC I105F), relative to WT Ile) was 0.205. The “Fi AVG (average fitness)” value ([5]; AA 105 Pro (BlaC I105P), relative to WT Ile) was 0.056, the “Fi AVG (average fitness)” value ([5]; AA 105 Ser (BlaC I105S), relative to WT Ile) was 0.083 and the “Fi AVG (average fitness)” value ([5]; AA 105 Thr (BlaC I105T), relative to WT Ile) was 0.012. The “Fi AVG (average fitness)” value ([5]; AA 105 Trp (BlaC I105W), relative to WT Ile) was 0.218, the “Fi AVG (average fitness)” value ([5]; AA 105 Tyr (BlaC I105Y), relative to WT Ile) was 0.087 and the “Fi AVG (average fitness)” value ([5]; AA 105 Val (BlaC I105V), relative to WT Ile) was 0.121. The “WT abs Fi 1” value ([5]; absolute fitness of BlaC WT (Ile 105), replicate 1) was -0.251, the “WT abs Fi 2” value ([5]; absolute fitness of BlaC WT (Ile 105), replicate 2) was 0.228 and the “WT abs Fi 3” value ([5]; absolute fitness of BlaC WT (Ile 105), replicate 3) was -0.183.
